One test deals with T1, CCKB receptor (Mus musculus, UniProt P56481).
T1 construct: The whole brains from male mice (CD1 22-25g; Charles River) were removed; from tissue; host or cells: cerebral cortex membranes of male CD1 mice
T1 sequence (P56481 1-453): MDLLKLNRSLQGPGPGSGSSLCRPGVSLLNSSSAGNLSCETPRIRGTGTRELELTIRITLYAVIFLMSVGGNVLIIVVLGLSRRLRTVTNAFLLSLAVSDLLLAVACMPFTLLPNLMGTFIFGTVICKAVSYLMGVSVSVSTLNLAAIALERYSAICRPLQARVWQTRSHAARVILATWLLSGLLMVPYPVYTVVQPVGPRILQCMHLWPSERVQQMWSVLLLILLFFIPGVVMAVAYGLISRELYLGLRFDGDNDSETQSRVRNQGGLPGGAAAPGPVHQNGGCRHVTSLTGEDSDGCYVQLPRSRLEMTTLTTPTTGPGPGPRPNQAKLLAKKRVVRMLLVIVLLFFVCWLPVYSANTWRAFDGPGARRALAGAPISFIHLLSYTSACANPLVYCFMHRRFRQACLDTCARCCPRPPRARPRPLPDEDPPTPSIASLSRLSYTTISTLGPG
Kind of test: radioligand binding assay at the CCKB receptor in mouse cortical membranes. The following applies: [125I]-CCK8S 200pM, 150 min at 21 ± 3°C; for Ki: read-out: CCKB pKi (converted). Summed up:
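Cortical membranes from male CD1 mice prepared in HEPES buffer (pH 7.2, with NaCl, KCl, MgCl2, EDTA, bacitracin) at 2 mg/ml wet weight. Binding stopped by rapid filtration over GF/B filters with ice-cold Tris-HCl washes. Bound radioactivity counted in a gamma-counter.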

The next test has as its target T2, gastrin (Rattus norvegicus, UniProt P30553).
T2 construct: The stomach was excised and flushed with ca. 1 ml of unbuffered physiological saline solution; from tissue; host or cells: isolated whole stomach of immature rats (33-50 g, ca. 21 days old)
T2 sequence (P30553 1-452): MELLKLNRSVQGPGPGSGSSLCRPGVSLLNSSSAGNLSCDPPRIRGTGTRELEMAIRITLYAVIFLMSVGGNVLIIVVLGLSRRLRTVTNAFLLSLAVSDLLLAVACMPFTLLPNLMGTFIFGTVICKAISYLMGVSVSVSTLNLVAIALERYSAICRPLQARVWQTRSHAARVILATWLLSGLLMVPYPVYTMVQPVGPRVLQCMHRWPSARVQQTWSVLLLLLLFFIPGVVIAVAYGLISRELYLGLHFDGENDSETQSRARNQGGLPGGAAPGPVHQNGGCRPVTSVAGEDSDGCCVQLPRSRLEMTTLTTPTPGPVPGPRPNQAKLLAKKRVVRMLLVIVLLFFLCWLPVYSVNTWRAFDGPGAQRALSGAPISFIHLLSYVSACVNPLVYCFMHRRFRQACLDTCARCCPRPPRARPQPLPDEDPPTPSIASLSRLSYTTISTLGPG
Kind of test: gastrin antagonist activity in an immature rat stomach assay. The following applies: isolated immature rat stomach, cumulative pentagastrin dose-response curves, acid secretion; for Kb: read-out: Gastrin pKB (converted). Summed up: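 Isolated stomachs from immature rats (33-50 g, ca. 21 days) perfused at 1 ml min^-1 with O2-gassed unbuffered saline, perfusate pH monitored by electrode. After 120 min stabilisation, compounds added to serosal bath; cumulative pentagastrin dose-response curves begun 60 min later.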

A further test deals with T3, CCKA (Cavia porcellus, UniProt Q63931).
T3 construct: The pancreatata were removed from male guinea-pigs (200-300g; Dunkin Hartley); from tissue; host or cells: pancreas membranes of male Dunkin Hartley guinea-pigs
T3 sequence (Q63931 1-430): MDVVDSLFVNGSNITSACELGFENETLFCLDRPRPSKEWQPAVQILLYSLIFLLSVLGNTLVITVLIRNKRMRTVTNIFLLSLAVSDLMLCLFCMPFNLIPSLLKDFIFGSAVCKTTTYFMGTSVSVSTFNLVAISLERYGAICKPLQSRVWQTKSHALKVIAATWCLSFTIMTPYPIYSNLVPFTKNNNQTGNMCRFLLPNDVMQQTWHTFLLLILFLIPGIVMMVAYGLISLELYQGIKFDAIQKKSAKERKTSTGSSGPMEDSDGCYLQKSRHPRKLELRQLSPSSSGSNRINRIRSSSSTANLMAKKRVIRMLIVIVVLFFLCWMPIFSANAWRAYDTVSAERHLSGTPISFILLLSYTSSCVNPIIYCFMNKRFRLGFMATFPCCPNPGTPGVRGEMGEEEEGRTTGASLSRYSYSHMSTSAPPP
Kind of test: CCKA binding assay in guinea-pig pancreas membranes. The settings on record: [125I]-CCK8(S) 200pM; for Ki: containing 0.375 µM PD134,308, read-out: CCKA pKi (converted). An outline of the steps:
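Competition binding of [125I]-CCK8(S) (200 pM in the added solution) to male guinea-pig pancreas membranes (1 mg/ml wet weight) containing 0.375 µM PD134,308, in HEPES buffer pH 7.2. Incubated 150 min at 21 ± 3°, then filtered. Bound radioactivity gamma-counted; non-specific binding defined with 100nM L-364,718.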

These results are taken from patent publication EP0719251B1, “BICYCLO (2.2.2) OCTANE DERIVATIVES CHOLECYSTOKININ AND/OR GASTRIN ANTAGONISTS” (JAMES BLACK FOUNDATION LIMITED, priority 1993, dated 1995).

For the compound `CN(C(=O)C1C2c3ccccc3C(c3ccccc32)C1C(=O)NCC12CC3CC(CC(C3)C1)C2)[C@@H](Cc1ccccc1)C(=O)Nc1cc(C(=O)O)cc(C(=O)O)c1` (stereo partly drawn) [Example 38, cis-7-(1S-(3,5-dicarboxyphenylaminocarbonyl) -2-phenylethyl-N (methyl)-aminocarbonyl) -8-(1-adamantanemethylaminocarbonyl) -2,3,5,6-dibenzobicyclo[2.2.2]octane], the Ki was 50.1 nM at CCKB receptor and 316 nM at CCKA. For the same compound, the Kb at gastrin is 79.4 nM.
In the case of `O=C(O)c1cc(NC(=O)[C@@H](NC(=O)C2C3c4ccccc4C(c4ccccc43)C2C(=O)NCC23CC4CC(CC(C4)C2)C3)c2ccccc2)cc(C(=O)O)c1` (stereo partly drawn) [Example 39, cis-7-(1S-(3,5-dicarboxyphenylaminocarbonyl) -3-phenylmethylaminocarbonyl)-8-(1-adamantanemethylaminocarbonyl) -2,3,5,6-dibenzobicyclo[2.2.2]octane], the Ki on CCKB receptor is 501 nM; at CCKA, 2510 nM. In addition, the Kb at gastrin is 398 nM.
With `COC(=O)c1cc(NC(=O)[C@H](Cc2ccccc2)NC(=O)C2C3c4ccccc4C(c4ccccc43)C2C(=O)NCC23CC4CC(CC(C4)C2)C3)cc(C(=O)O)c1` (stereo partly drawn) [Example 42, cis-7-(1S-(3-carboxy-5-methoxycarbonyl-phenylaminocarbonyl)-2-phenylethylaminocarbcnyl)-8-(1-adamantanemethylaminocarbonyl) -2,3,5,6-dibenzobicyclo[2.2.2]octane], the Ki at CCKB receptor is 31.6 nM; on CCKA it was 2000 nM. In addition, at gastrin, the Kb was 1580 nM.
The corresponding values for `O=C(O)c1ccc(NC(=O)[C@H](Cc2ccccc2)NC(=O)C2C3c4ccccc4C(c4ccccc43)C2C(=O)NCC23CC4CC(CC(C4)C2)C3)cc1C(=O)O` (stereo partly drawn) [Example 43, cis-7-(1S-(3,4-dicarboxyphenylaminocarbonyl)-2-phenylethylaminocarbonyl)-8-(1-adamantanemethylaminocarbonyl)-2,3,5,6-dibenzobicyclo [2.2.2]octane] are 100 nM, 1260 nM and 794 nM.
The corresponding values for `CC(C)(NC(=O)C1C2c3ccccc3C(c3ccccc32)C1C(=O)N[C@@H](Cc1ccccc1)C(=O)Nc1cc(C(=O)O)cc(C(=O)O)c1)C12CC3CC(CC(C3)C1)C2` (stereo partly drawn) [Example 49, cis-7-(1S-(3,5-dicarboxyphenylaminocarbonyl)-2-phenylethylaminocarbonyl)-8-(1-(1-adamantane)-1-methyl-ethylaminocarbonyl) -2,3,5,6-dibenzobicyclo[2.2.2]octane] are 63.1 nM, 2510 nM and 10 nM.
For `O=C(O)c1cc(NC(=O)[C@H](Cc2ccccc2)NC(=O)C2C3c4ccccc4C(c4ccccc43)C2C(=O)NCCc2ccccc2)cc(C(=O)O)c1` (stereo partly drawn) [Example 53, cis-7-(1S-(3,5-dicarboxyphenylaminocarbonyl) -2-phenylethylaminocarbonyl) -8-(2-phenylethylaminocarbonyl) -2,3,5,6-dibenzobicyclo[2.2.2]octane], the Ki is 3.98 nM at CCKB receptor and 3160 nM at CCKA. The Kb on gastrin is 79.4 nM.
On to “cis-7-(1S-(3,5-dicarboxyphenylaminocarbonyl) -2-(2-thiophenyl)-ethylaminocarbonyl) -8-(1-adamantane-methylaminocarbonyl) -2,3,5,6-dibenzobicyclo[2.2.2]octane [Example 6]”, for which the “CCKB pKi” value on CCKB receptor is 8.6. The “Gastrin pKB” value at gastrin (60 min) came out at 7.9. For the same compound, the “CCKA pKi” value on CCKA (containing 0.375 µM PD134,308) was 5.7.
